Patent publication US20070027165A1, “Fungicidal mixtures for controlling rice pathogens” (BASF Aktiengesellschaft, priority 2003, published 2007)

Test system: Cochliobolus miyabeanus
Assay: activity against brown spot of rice caused by Cochliobolus miyabeanus, protective application
Type: in vivo
Details: individual active compound, rice seedlings, assessed 6 days after inoculation
Protocol: The active compounds, separately or jointly, were prepared as a stock solution with 0.25% by weight of active compound in acetone or DMSO. 1% by weight of the emulsifier Uniperol® EL (wetting agent having emulsifying and dispersing action based on ethoxylated alkylphenols) was added to this solution, and the solution was diluted with water to the desired concentration.
Use example—activity against brown spot of rice caused by Cochliobolus miyabeanus, protective application
Leaves of potted rice seedlings of the cultivar “Tai-Nong 67” were sprayed to runoff point with an aqueous suspension of the concentration of active compound stated below. The next day, the plants were inoculated with an aqueous spore suspension of Cochliobolus miyabeanus. The test plants were then placed in climatized chambers at 22-24° C. and 95-99 % relative atmospheric humidity for six days. The extent of the development of the infection on the leaves was then determined visually.
Evaluation was carried out by determining the percentage of infected plants. These percentages were converted into efficacies.
The efficacy (E) is calculated as follows using Abbot's formula: E=(1−α/β)·100 α corresponds to the fungicidal infection of the treated plants in % and β corresponds to the fungicidal infection of the untreated (control) plants in %
An efficacy of 0 means that the infection level of the treated plants corresponds to that of the untreated control plants; an efficacy of 100 means that the treated plants are not infected.
The expected efficacies of mixtures of active compounds are determined using Colby's formula (R. S. Colby, Weeds, 15, 20-22, 1967) and compared with the observed efficacies.
Colby's formula: E=x+y−x·y/100 • E expected efficacy, expressed in % of the untreated control, when using the mixture of the active compounds A and B at the concentrations a and b • x efficacy, expressed in % of the untreated control, when using the active compound A at the concentration a • y efficacy, expressed in % of the untreated control, when using the active compound B at the concentration b

| Structure (SMILES) | Efficacy in % of the untreated control (1 ppm in the spray liquor) | Efficacy in % of the untreated control (4 ppm in the spray liquor) |
| --- | --- | --- |
| CC1CCN(c2c(-c3c(F)cc(F)cc3F)c(Cl)nc3ncnn23)CC1 [I, 5-chloro-7-(4-methylpiperidin-1-yl)-6-(2,4,6-trifluorophenyl)-[1,2,4]triazolo[1,5-a]pyrimidine] | 8% |  |
| N#Cc1c[nH]cc1-c1cccc(Cl)c1Cl [II (fenpiclonil), 4-(2,3-dichlorophenyl)-1 H-pyrrole-3-carbonitrile] | 0% | 0% |
| CC1CCN(c2c(-c3c(F)cccc3Cl)c(Cl)nc3ncnn23)CC1 [comparative compound A] | 20% |  |
| C[C@H](Nc1c(-c2c(F)cc(F)cc2F)c(Cl)nc2ncnn12)C(F)(F)F [comparative compound B] | 20% |  |
